Columns and labels:
MMP-9 = target: T1, MMP-9 (Homo sapiens, UniProt P14780); test: Isothermal titration calorimetry with MMP-9; assay type: binding
T1 construct: Active MMP-9 enzyme was purchased from Calbiochem; purchased Calbiochem
Procedure: Isothermal titration calorimetry (ITC) was performed with a VP-ITC instrument from MicroCal, hIc. Titrations were carried out by injecting 5 μL of an inhibitor peptide solution (at concentration ranges from 0.5 mM to 2.0 mM) into the 1.4 mL stirred reaction cell. […] Titrations were conducted between 20° C. and 40° C. Typical experimental conditions for the titrations were a 10 second injection period followed by a 240 second delay between injections for a total of 40 injections. Blank titrations of inhibitor peptide into buffer were performed in order to correct for heats of dilution and mixing.
The independent set of multiple binding sites is the most common model for binding experiment evaluations. The analytical solution for the total heat is determined by (Freire et al., 1990):
[formula] where Q is the total heat, V is the cell volume, ΔH is the enthalpy, M is the macromolecule concentration (the binding partner in the cell), n is the binding stoichiometry, L is the ligand concentration (the binding partner in the syringe), and K is the association constant. Data were fit to this model using Origin version 5 (MicroCal, Inc.). Surface Plasmon Resonance
The peptide was dissolved in 20 mM cacodylate (pH 6.8), 20 mM NaCl at a final concentration of 1 mM. MMP-9 was dialyzed into the same buffer at a final concentration of 20 μM. […]

[1] = tested on: normal human dermal fibroblasts (NHDF); test: NHDF migration assay (48-well chemotaxis chamber); assay type: cell-based
Procedure: Normal, human dermal fibroblasts (NHDF) were obtained from Biowhittaker, (Walkersville, Md.) and propagated in T75 flasks in FBM media (500 mL, Biowhittaker) containing insulin, hFGF-b, GA-1000, and fetal bovine serum (10 mL) for up to 12 passages. For the migration assay, NHDF were washed once with 10 mL of Hank's buffered saline solution (HBSS). Three milliliters of trypsin (0.25%) in EDTA were added to the T75 flask for no more than five minutes to remove NHDF from the flask. NHDF in trypsin solution were added to 7 mL of FBM with no supplements added. NHDF were centrifuged for 5 minutes, and the supernatant was removed. NHDF were resuspended in 10 mL of FBM for counting. NHDF were centrifuged for another 5 minutes, and the supernatant was removed. NHDF were resuspended at 1×10^6 cells per mL in FBM without supplements. It was important to use FBM media only in migration assays because the complete media contains fibroblast growth factor and serum, both of which will trigger migration of fibroblasts.
Peptides were synthesized and purified by the Microchemical Facility at Emory University or by SigmaGenesis. All peptides were analyzed by mass spectrometry after HPLC to assess purity. Approximately 0.5–2.0 milligrams of peptide were used to make fresh stock solutions (5 mg/mL in PBS) for each migration assay. The peptide stock solutions in PBS were used to make more dilute solutions (1 mg/mL, 100 μg/mL, 10 μg/mL, 1 μg/mL, 100 ng/mL, 10 ng/mL) in FBM (without supplements) for the migration assays.
Polyvinylpyrrolidone-free polycarbonate membranes with […] pores (Neuroprobe, Inc., Gaithersburg, Md.) were washed with 90% ethanol for 15 minutes and rinsed four times with deionized water. Membranes were then placed into a glass dish containing an aqueous solution of 5 μg/mL gelatin. The glass dish was placed in to a water bath at about 90° C. for one hour. Membranes were removed from the gelatin solution and were allowed to dry for one hour in the 37° C. incubator.
A 48-well chemotaxis chamber (Neuroprobe, Inc., Gaithersburg, Md.) (see FIG. 20) was used for the migration assays. Twenty-eight/μL of each test solution were added to the bottom wells of the chamber in quadruplicate. A gelatin-treated membrane was placed carefully on top of the bottom wells. The gasket and top part of chamber were then placed carefully on top of the membrane. The apparatus was tightened using six thumbscrews. A solution of NHDF containing an estimated cell density (2×10^5 cells per mL) was made by adding 320 μL of the 1×10^6 cells per mL solution to 1.28 mL of FBM (no supplements). Fifty microliters of the 2×10^5 cells per mL NHDF solution were added to the top part of each well in the chamber. The chamber was placed in the incubator at 37° C./5% CO2 for three hours. The chamber was removed, the thumbscrews were removed, and the chamber was turned upside down on a paper towel. […] The membrane was carefully removed. […] The membrane was fixed with methanol and stained using the Diff-Quik Staining Solutions I and II. The nuclei of NHDF are stained purple. The membrane was mounted on a glass slide using cedarwood immersion oil and a cover slip. […] The average number of migrated NHDF in the negative control was subtracted from the experimental (peptide) data and positive control data.

[2] = tested on: human skin fibroblast cell line (Clonetics, CC-2509); test: Collagen production in human skin fibroblasts (Takara EIA kit); assay type: cell-based; settings: for collagen production, Median (absorbance at 450 nm) / collagen production, Mean (absorbance at 450 nm): 48 hours; for collagen production, Mean (absorbance at 450 nm): n=2, control mean 0.7388
Procedure: The stimulation response of the 19mer peptide (SEQ ID NO:11) on collagen production in the human skin fibroblast cell line (Clonetics, Walkersville, Md., normal human dermal fibroblasts, neonatal, catalog number CC-2509) was measured using Takara Biomedicals EIA assay kit (TAK MK101) sold by Panvera (Madison, Wis.). The cells were first grown in a 96-well assay system using Dulbecco's Modified Eagle's Medium (DMEM) with 10% fetal bovine serum (FBS) both purchased from Sigma Chemical Co, St. Louis, Mo. Serum-free DMEM was used as a control. […] Plates were incubated for 24 hours at 37° C. in a humidified 5% CO2 atmosphere. After incubation, the medium was aspirated and the wells were rinsed twice with 100 μl of serum-free DMEM. […] In addition, 100 μl of vehicle (serum-free DMEM) was added to 4 wells as control. All wells were incubated for 48 hours at 37° C. in a humidified, 5% CO2 atmosphere.
The assay was performed using the recommended 20 ul of the supernatant from each well of the 96-well plate. Standard buffer and stop solutions were freshly prepared before running the assay. 100 ul of antibody-POD conjugate solution (supplied with the kit) was added into the wells using pre antibody coated 96 well plate (supplied with the kit). 20 ul of standard and test solutions (from the other 96-well plate containing fibroblasts) were added to appropriate wells. Plate was mixed gently, sealed and incubated for three hrs. at 37° C.
After incubation each well was washed carefully four times with PBS buffer (400 ul). All the wells were completely emptied at the end of washing from any liquid. 100 ul of substrate solution (hydrogen peroxide and tetramethylbenzidine in a buffer solution, supplied with the kit) was added to each well and the plate was incubated for 15 minutes. At this point 100 ul of stop solution (freshly prepared 1N H2SO4) was added to each well in the same order as substrate. The plate was gently mixed and absorbance was read at 450 nm. Results were analyzed statistically using one-way ANOVA.

T1 sequence (P14780 107-707 limits assumed): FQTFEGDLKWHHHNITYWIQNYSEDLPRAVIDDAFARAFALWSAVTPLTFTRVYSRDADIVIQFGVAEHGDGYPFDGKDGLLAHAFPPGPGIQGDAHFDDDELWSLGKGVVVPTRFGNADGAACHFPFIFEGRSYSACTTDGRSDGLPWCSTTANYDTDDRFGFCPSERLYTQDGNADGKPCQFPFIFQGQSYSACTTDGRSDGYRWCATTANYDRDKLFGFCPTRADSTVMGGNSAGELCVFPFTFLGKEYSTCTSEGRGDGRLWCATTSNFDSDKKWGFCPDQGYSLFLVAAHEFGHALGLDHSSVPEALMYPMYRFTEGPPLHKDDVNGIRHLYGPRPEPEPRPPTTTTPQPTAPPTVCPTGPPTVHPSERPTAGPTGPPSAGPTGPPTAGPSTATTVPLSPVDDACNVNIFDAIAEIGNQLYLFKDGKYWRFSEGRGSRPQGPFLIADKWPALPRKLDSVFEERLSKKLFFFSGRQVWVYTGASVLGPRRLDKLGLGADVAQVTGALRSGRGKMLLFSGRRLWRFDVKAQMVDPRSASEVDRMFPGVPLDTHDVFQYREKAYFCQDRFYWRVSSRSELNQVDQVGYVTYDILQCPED

With `CC(C)[C@H](NC(=O)[C@H](CC(=O)O)NC(=O)[C@@H]1CCCN1C(=O)[C@H](CC(N)=O)NC(=O)CNC(=O)[C@H](CS)NC(=O)[C@H](CCCNC(=N)N)NC(=O)[C@@H]1CCCN1)C(=O)N[C@@H](C)C(=O)N[C@@H](CC(N)=O)C(=O)N[C@@H](Cc1ccc(O)cc1)C(=O)N[C@@H](CC(N)=O)C(=O)N[C@@H](Cc1ccccc1)C(=O)N[C@@H](Cc1ccccc1)C(=O)N1CCC[C@H]1C(=O)N[C@@H](CCCNC(=N)N)C(=O)N[C@@H](CCCCN)C(=O)N1CCC[C@H]1C(=O)N[C@@H](CCCCN)C(=O)O` [19-mer] the Kd (MMP-9) was 606 nM, the Stoichiometry (MMP-9; ITC, 1 mM peptide into 20 μM MMP-9, 20 mM cacodylate (pH 6.8), 20 mM NaCl) was 0.975 ± 0.02 and the “percent of migrated NHDF compared to plasma fibronectin positive control” value (“percent of migrated NHDF” below) ([1]; 100 μg/mL peptide, three hours) was 46%±3%. For the same compound, the “percent of migrated NHDF” value ([1]; 100 μg/mL peptide, three hours, listed as 19-mer peptide) was 46±3%, the “percent of migrated NHDF” value ([1]; 1000 μg/mL peptide, three hours) was 55%±3% and the “percent of migrated NHDF” value ([1]; 1000 μg/mL peptide, three hours, listed as 19-mer peptide) was 55±3%. For the same compound, the “percent of migrated NHDF” value ([1]; concentrations below 100 μg/mL) was “about 20%”, the “collagen production, Median (absorbance at 450 nm)” value ([2]; 1×10^−5 M) was 0.8365 and the “collagen production, Mean (absorbance at 450 nm)” value ([2]; 1×10^−5 M) was 0.8365. For the same compound, the “collagen production, Median (absorbance at 450 nm)” value ([2]; 1×10^−6 M) was 0.8315, the “collagen production, Mean (absorbance at 450 nm)” value ([2]; 1×10^−6 M) was 0.8315 and the “collagen production versus control” value ([2]; 10^−5 and 10^−6 M, P<0.001) was “increased collagen production at both concentrations employed”.

From US7094754B2, “Anti-aging and wound healing compounds” (Kimberly-Clark Worldwide, Inc., priority 2001, dated 2006)
